SMILES strings stand for the structures.

Common to all, as to assay: DSF thermal shift
What all share (assay type): binding
Common to all, as to settings: 10 µM inhibitor; read-out: Tm shift

The target of test [1] is T1, ALK5 (Homo sapiens, UniProt P36897).
T1 construct: purchased Nanosyn (enzymatic panel); SGC in-house recombinant human kinases (DSF panel); Invitrogen (ALK1-6)
The procedure, abridged:
(§1)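 Protein unfolding is read on a real-time PCR instrument. The assay uses 1–2 µM recombinant human kinase with test compound at 10 µM.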

Test [2] addresses T2, ALK6 (Homo sapiens, UniProt O00238).
T2 construct: purchased Nanosyn (enzymatic panel); SGC in-house recombinant human kinases (DSF panel); Invitrogen (ALK1-6)
The method in brief:
as §1

The target in test [3] is T3, BRK (Homo sapiens, UniProt Q13882).
T3 construct: purchased Nanosyn (enzymatic panel); SGC in-house recombinant human kinases (DSF panel); Invitrogen (ALK1-6)
T3 sequence (Q13882 whole entry): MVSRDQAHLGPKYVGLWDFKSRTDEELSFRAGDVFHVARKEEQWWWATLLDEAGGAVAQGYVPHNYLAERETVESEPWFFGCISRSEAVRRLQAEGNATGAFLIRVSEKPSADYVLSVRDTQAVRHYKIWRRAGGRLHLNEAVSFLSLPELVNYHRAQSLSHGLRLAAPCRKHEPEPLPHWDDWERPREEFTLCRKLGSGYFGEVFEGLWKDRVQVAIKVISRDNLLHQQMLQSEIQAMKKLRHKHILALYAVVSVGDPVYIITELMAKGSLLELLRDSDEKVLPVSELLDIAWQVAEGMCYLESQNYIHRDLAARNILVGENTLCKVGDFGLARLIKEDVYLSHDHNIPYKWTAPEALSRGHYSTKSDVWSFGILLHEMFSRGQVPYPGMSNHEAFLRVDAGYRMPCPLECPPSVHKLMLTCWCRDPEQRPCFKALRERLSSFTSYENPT
The method in brief: as §1

The target in test [4] is T4, CAMK1δ (Homo sapiens, UniProt Q8IU85).
T4 construct: purchased Nanosyn (enzymatic panel); SGC in-house recombinant human kinases (DSF panel); Invitrogen (ALK1-6)
T4 sequence (Q8IU85 whole entry): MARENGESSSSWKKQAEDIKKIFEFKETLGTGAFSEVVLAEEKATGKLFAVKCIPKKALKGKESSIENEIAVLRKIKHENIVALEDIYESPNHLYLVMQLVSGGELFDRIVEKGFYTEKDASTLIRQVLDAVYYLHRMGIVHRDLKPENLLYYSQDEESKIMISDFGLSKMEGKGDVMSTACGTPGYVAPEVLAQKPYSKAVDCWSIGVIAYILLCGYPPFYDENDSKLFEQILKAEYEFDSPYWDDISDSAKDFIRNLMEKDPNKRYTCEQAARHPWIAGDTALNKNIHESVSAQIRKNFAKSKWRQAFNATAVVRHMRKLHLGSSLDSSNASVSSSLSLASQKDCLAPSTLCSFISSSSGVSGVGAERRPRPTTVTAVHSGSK
The procedure, abridged:
as §1

Test [5] addresses T5, CDK8 (Homo sapiens, UniProt P49336).
T5 construct: purchased Nanosyn (enzymatic panel); SGC in-house recombinant human kinases (DSF panel); Invitrogen (ALK1-6)
The procedure, abridged: as §1

Test [6] deals with T6, CK1ε (Homo sapiens, UniProt P49674).
T6 construct: purchased Nanosyn (enzymatic panel); SGC in-house recombinant human kinases (DSF panel); Invitrogen (ALK1-6)
T6 sequence (P49674 whole entry): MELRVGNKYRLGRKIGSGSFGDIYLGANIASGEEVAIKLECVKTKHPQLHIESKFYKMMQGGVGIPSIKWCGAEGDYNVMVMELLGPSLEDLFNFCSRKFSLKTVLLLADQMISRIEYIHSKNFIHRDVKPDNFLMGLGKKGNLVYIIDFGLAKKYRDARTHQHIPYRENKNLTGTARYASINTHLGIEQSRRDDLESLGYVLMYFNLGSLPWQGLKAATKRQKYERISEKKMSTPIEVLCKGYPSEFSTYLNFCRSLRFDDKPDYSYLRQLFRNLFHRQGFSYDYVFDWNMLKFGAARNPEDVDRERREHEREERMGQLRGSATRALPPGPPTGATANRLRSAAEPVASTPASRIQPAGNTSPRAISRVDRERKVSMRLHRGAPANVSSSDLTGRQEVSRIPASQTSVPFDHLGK
The procedure, abridged:
as §1

Test [7] concerns the target T7, DAPK3 (Homo sapiens, UniProt O43293).
T7 construct: purchased Nanosyn (enzymatic panel); SGC in-house recombinant human kinases (DSF panel); Invitrogen (ALK1-6)
The method in brief:
as §1

Test [8] deals with T8, DCAMKL1 (Homo sapiens, UniProt O15075).
T8 construct: purchased Nanosyn (enzymatic panel); SGC in-house recombinant human kinases (DSF panel); Invitrogen (ALK1-6)
The method in brief: as §1

The target in test [9] is T9, DYRK2 (Homo sapiens, UniProt Q92630).
T9 construct: purchased Nanosyn (enzymatic panel); SGC in-house recombinant human kinases (DSF panel); Invitrogen (ALK1-6)
T9 sequence (Q92630 1-601): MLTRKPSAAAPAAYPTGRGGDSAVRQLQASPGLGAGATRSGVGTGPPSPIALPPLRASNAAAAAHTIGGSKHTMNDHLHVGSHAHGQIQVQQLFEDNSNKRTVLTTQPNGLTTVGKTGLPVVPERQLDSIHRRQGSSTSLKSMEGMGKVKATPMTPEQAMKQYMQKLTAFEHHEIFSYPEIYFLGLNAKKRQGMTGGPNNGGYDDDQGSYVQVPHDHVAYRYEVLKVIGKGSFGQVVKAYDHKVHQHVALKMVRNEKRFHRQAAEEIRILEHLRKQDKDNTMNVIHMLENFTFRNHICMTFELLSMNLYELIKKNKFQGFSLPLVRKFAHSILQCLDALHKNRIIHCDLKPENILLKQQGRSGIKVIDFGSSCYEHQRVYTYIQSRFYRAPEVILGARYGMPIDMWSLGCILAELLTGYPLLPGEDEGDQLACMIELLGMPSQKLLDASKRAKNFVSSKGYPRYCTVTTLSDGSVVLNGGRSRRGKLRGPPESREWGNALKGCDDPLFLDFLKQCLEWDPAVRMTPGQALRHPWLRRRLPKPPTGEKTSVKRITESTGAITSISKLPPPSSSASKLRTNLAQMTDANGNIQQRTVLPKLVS
The method in brief:
as §1

Test [10] deals with T10, GAK (Homo sapiens, UniProt O14976).
T10 construct: purchased Nanosyn (enzymatic panel); SGC in-house recombinant human kinases (DSF panel); Invitrogen (ALK1-6)
The method in brief:
as §1

The target of test [11] is T11, PCTAIRE1 (Homo sapiens, UniProt Q00536).
T11 construct: purchased Nanosyn (enzymatic panel); SGC in-house recombinant human kinases (DSF panel); Invitrogen (ALK1-6)
T11 sequence (Q00536 whole entry): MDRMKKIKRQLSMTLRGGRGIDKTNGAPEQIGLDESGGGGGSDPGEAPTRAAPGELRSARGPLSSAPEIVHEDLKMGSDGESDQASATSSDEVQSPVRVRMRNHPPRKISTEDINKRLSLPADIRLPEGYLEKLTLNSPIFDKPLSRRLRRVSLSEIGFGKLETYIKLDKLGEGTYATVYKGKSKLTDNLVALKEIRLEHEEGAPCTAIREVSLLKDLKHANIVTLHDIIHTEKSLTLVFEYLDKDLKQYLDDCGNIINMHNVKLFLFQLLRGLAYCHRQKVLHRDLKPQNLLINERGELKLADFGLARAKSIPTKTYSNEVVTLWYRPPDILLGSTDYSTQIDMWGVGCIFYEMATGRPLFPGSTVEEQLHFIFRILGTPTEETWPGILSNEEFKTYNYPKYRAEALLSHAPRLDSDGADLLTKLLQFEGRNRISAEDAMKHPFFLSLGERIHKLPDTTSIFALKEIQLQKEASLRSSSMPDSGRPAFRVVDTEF
The method in brief:
as §1

Test [12] concerns the target T12, PKD3 (Homo sapiens, UniProt O94806).
T12 construct: purchased Nanosyn (enzymatic panel); SGC in-house recombinant human kinases (DSF panel); Invitrogen (ALK1-6)
The procedure, abridged: as §1

Test [13] deals with T13, PRKX (Homo sapiens, UniProt P51817).
T13 construct: purchased Nanosyn (enzymatic panel); SGC in-house recombinant human kinases (DSF panel); Invitrogen (ALK1-6)
T13 sequence (P51817 1-358): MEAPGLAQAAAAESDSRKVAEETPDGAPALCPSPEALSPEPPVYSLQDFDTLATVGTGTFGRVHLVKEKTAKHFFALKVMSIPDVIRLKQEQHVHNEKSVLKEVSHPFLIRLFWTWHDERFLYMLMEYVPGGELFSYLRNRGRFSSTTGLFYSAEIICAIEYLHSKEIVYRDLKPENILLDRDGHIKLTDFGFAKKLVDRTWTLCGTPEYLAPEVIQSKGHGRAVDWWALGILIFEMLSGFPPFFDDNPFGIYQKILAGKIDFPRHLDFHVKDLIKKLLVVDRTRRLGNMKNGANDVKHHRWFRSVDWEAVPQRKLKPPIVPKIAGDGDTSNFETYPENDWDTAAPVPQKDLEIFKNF
The method in brief: as §1

Test [14] addresses T14, SRPK2 (Homo sapiens, UniProt P78362).
T14 construct: purchased Nanosyn (enzymatic panel); SGC in-house recombinant human kinases (DSF panel); Invitrogen (ALK1-6)
The method in brief: as §1

The target of test [15] is T15, STK33 (Homo sapiens, UniProt Q9BYT3).
T15 construct: purchased Nanosyn (enzymatic panel); SGC in-house recombinant human kinases (DSF panel); Invitrogen (ALK1-6)
The procedure, abridged:
as §1

Test [16] concerns the target T16, TTK (Homo sapiens, UniProt P33981).
T16 construct: purchased Nanosyn (enzymatic panel); SGC in-house recombinant human kinases (DSF panel); Invitrogen (ALK1-6)
T16 sequence (P33981 1-857): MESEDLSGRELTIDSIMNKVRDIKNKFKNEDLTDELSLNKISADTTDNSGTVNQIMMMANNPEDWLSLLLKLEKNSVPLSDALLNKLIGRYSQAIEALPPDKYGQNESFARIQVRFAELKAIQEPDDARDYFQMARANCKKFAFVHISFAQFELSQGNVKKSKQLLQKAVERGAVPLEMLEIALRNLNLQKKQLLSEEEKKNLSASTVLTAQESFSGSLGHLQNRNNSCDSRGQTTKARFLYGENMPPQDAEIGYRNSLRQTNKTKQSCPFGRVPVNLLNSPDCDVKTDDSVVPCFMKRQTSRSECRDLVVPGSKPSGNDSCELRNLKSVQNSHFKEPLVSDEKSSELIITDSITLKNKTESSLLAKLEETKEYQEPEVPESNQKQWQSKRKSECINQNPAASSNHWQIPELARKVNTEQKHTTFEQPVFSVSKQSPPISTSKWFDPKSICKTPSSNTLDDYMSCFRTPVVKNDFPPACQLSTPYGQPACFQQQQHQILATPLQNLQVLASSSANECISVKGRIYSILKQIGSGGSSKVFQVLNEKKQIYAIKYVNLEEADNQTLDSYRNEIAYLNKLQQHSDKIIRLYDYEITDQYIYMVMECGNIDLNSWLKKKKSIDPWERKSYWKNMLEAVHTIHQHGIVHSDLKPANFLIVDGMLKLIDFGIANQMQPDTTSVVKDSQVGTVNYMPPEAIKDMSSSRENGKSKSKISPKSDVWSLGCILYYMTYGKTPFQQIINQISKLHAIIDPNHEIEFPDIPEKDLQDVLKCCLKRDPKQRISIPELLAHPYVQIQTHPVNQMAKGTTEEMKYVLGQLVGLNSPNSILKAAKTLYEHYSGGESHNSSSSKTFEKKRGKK
The procedure, abridged:
as §1

T12 sequence (O94806 whole entry): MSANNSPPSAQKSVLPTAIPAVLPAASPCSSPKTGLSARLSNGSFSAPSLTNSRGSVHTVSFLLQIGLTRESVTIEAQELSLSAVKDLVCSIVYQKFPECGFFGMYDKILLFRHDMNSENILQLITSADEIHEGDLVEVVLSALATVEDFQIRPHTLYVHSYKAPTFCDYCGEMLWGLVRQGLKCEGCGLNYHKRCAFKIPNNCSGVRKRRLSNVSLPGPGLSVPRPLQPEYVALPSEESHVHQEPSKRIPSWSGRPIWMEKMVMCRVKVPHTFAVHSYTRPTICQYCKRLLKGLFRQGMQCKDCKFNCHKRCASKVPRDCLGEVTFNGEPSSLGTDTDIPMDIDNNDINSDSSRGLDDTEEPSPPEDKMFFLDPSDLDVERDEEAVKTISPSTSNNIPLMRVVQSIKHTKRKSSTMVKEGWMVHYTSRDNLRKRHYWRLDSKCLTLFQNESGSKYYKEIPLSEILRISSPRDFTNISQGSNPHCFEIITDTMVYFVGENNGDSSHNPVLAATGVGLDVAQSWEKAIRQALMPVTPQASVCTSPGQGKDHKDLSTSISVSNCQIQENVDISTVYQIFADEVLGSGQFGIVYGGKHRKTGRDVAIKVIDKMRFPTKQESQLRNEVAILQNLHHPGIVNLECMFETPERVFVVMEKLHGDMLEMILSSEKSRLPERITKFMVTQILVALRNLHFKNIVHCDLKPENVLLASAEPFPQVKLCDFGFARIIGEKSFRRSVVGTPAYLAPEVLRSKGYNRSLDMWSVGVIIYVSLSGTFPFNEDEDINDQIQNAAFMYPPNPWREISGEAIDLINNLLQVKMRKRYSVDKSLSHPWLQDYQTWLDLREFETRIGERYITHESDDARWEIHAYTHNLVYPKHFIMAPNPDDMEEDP
T7 sequence (O43293 whole entry): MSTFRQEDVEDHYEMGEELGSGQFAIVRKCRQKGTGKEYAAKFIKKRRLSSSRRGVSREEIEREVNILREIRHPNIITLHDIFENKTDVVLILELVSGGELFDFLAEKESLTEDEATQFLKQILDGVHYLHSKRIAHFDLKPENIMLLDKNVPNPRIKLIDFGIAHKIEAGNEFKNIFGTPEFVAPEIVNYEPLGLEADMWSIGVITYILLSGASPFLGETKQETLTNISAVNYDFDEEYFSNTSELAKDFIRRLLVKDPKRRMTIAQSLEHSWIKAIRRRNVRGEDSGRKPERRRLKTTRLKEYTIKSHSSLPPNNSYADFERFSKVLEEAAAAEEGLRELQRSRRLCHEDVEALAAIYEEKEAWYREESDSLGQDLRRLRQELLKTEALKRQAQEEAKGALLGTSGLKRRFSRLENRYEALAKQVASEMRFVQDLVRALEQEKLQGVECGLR
T14 sequence (P78362 whole entry): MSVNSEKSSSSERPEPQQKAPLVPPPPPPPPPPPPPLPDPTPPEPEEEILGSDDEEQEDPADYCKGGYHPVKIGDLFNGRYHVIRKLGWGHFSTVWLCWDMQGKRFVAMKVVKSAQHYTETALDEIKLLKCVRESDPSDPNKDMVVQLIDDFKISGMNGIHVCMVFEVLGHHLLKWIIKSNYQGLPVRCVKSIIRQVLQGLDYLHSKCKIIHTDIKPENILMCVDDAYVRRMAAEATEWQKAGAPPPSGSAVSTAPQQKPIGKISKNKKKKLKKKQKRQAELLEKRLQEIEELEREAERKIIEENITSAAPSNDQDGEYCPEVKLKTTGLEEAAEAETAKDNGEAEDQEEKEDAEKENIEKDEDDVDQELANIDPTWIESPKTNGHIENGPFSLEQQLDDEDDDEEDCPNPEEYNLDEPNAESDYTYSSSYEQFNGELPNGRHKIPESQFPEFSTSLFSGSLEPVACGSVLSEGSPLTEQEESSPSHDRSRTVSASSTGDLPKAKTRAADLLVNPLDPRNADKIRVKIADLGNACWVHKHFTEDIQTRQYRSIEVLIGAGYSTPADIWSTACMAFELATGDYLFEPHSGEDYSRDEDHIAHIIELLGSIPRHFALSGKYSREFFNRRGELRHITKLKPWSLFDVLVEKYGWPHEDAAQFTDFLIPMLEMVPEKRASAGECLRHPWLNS
T1 sequence (P36897 34-503): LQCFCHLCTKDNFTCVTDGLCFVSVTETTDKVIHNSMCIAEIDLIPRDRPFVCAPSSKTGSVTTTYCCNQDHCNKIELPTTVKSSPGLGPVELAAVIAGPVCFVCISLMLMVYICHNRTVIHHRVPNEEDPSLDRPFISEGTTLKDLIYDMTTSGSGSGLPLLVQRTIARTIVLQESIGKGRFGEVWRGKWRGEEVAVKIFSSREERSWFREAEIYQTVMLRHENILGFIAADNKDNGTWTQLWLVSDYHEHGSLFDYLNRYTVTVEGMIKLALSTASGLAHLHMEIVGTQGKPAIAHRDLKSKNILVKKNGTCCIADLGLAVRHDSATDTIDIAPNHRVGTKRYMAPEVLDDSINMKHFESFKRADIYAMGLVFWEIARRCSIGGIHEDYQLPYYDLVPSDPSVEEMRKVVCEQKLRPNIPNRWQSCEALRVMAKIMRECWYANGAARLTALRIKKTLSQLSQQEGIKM
T2 sequence (O00238 14-502): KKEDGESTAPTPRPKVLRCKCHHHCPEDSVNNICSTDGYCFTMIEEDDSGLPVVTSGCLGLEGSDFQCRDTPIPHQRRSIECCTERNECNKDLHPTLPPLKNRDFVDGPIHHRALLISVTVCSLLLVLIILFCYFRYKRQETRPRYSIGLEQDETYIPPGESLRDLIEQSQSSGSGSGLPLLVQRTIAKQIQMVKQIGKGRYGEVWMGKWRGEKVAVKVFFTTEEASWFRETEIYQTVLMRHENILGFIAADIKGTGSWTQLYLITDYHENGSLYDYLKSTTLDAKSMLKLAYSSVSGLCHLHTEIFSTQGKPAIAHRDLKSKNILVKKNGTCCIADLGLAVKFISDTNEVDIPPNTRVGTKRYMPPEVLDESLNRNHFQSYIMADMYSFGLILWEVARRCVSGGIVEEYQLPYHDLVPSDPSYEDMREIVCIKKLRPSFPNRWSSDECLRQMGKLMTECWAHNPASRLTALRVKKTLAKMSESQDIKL

With `COc1cc(-c2cc(-c3cccc(O)c3)cnc2N)cc(OC)c1OC` [K02288, 3-[6-amino-5-(3,4,5-trimethoxy-phenyl)-pyridin-3-yl]-phenol], the ΔTm at 10 µM was 11.6 °C in [1]; 13.9 °C in test [2]; 0 °C in test [3]; -0.3 °C in [4]; 0.1 °C in test [5]; 4.5 °C in test [6]. Also, the ΔTm at 10 µM is 0.2 °C in test [7]; 0.1 °C in [8]; 0.3 °C in test [9]; 6.9 °C in [10]; -1.8 °C in [11]; 1.2 °C in [12]. For the same molecule, the ΔTm at 10 µM in [13] turned out to be 0.2 °C; in test [14] it was 0.2 °C; in test [15], 1.1 °C; in test [16], 1.1 °C.

For the molecule `c1cc(-c2cnn3cc(-c4ccc(OCCN5CCCCC5)cc4)cnc23)ccn1` [Dorsomorphin], the ΔTm at 10 µM was 7.4 °C in test [1]; 12.4 °C in test [2]; 2.8 °C in [3]; -0.3 °C in test [4]; 0.5 °C in [5]; 5.9 °C in test [6]. The ΔTm at 10 µM amounted to 1.2 °C in [7]; 0.3 °C in [8]; 5.1 °C in test [9]; 4.3 °C in test [10]; 4.7 °C in test [11]; 0.9 °C in [12]. Also, the ΔTm at 10 µM in test [13] came to 2.9 °C; in [14] it was 0.2 °C; in test [15] it was 4.2 °C; in test [16] it was 1 °C.

For the origin of these results see PMC3639963, “A New Class of Small Molecule Inhibitor of BMP Signaling” (PLoS ONE, 2013).
